These results are taken from ChEMBL document CHEMBL3396973, “Synthesis and biological evaluation of new pyrazol-4-ylpyrimidine derivatives as potential ROS1 kinase inhibitors” (Eur J Med Chem, 2015).

SMILES strings stand for the structures.

What is called IC50 is the concentration needed to halve the response being measured. A low value points to greater potency.

The target in experiment [1] is T1, Proto-oncogene tyrosine-protein kinase ROS (Homo sapiens, UniProt P08922).
Experiment [2] addresses T2, Hepatocyte growth factor receptor (Homo sapiens, UniProt P08581).
The target of experiment [3] is T1, Proto-oncogene tyrosine-protein kinase ROS. Put plainly: Inhibition of ROS1 (unknown origin) by HotSpot assay.
Experiment [4] has the same target. This is another data set of the same source.
The target of experiment [5] is ALK tyrosine kinase receptor (Homo sapiens, UniProt Q9UM73).
Experiment [6] concerns the target T2, Hepatocyte growth factor receptor. This is another data set of the same source.
The target of experiment [7] is T1, Proto-oncogene tyrosine-protein kinase ROS. This is another data set of the same source.

T2 sequence (P08581 whole entry): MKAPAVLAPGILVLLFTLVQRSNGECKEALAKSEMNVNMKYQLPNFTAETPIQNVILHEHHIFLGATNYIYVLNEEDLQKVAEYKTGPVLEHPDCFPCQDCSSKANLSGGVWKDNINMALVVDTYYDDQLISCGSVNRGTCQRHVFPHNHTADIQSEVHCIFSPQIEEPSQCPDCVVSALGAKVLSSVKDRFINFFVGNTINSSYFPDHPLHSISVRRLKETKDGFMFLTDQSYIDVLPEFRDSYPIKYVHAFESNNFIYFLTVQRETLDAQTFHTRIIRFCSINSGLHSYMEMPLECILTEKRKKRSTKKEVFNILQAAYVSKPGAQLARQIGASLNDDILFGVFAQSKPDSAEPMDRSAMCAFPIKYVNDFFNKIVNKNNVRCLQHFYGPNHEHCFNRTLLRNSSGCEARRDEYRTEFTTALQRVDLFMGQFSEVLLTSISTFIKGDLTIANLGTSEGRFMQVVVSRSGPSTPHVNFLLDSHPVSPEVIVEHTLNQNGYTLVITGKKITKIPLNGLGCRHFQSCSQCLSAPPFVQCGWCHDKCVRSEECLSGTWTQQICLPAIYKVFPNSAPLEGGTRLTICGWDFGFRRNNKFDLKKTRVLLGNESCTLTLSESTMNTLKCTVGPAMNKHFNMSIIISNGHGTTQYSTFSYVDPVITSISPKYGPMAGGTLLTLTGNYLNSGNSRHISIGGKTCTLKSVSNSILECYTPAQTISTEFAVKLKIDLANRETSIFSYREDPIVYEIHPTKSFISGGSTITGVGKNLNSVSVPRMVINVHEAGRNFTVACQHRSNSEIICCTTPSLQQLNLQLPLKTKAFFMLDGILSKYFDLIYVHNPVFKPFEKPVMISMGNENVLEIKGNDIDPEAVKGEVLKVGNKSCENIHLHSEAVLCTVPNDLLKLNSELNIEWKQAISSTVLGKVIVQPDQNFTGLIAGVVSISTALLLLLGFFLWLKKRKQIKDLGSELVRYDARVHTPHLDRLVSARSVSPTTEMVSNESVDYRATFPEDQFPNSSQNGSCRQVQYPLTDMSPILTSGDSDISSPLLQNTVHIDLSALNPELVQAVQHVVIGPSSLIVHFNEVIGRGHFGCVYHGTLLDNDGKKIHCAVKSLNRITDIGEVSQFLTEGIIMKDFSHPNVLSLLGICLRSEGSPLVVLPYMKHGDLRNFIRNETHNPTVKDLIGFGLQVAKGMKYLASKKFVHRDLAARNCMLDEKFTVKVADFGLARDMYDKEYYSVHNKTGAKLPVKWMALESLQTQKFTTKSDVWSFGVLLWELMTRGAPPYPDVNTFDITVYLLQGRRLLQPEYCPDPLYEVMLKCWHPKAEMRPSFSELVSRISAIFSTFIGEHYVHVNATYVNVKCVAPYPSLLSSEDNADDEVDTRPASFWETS
T1 sequence (P08922 whole entry): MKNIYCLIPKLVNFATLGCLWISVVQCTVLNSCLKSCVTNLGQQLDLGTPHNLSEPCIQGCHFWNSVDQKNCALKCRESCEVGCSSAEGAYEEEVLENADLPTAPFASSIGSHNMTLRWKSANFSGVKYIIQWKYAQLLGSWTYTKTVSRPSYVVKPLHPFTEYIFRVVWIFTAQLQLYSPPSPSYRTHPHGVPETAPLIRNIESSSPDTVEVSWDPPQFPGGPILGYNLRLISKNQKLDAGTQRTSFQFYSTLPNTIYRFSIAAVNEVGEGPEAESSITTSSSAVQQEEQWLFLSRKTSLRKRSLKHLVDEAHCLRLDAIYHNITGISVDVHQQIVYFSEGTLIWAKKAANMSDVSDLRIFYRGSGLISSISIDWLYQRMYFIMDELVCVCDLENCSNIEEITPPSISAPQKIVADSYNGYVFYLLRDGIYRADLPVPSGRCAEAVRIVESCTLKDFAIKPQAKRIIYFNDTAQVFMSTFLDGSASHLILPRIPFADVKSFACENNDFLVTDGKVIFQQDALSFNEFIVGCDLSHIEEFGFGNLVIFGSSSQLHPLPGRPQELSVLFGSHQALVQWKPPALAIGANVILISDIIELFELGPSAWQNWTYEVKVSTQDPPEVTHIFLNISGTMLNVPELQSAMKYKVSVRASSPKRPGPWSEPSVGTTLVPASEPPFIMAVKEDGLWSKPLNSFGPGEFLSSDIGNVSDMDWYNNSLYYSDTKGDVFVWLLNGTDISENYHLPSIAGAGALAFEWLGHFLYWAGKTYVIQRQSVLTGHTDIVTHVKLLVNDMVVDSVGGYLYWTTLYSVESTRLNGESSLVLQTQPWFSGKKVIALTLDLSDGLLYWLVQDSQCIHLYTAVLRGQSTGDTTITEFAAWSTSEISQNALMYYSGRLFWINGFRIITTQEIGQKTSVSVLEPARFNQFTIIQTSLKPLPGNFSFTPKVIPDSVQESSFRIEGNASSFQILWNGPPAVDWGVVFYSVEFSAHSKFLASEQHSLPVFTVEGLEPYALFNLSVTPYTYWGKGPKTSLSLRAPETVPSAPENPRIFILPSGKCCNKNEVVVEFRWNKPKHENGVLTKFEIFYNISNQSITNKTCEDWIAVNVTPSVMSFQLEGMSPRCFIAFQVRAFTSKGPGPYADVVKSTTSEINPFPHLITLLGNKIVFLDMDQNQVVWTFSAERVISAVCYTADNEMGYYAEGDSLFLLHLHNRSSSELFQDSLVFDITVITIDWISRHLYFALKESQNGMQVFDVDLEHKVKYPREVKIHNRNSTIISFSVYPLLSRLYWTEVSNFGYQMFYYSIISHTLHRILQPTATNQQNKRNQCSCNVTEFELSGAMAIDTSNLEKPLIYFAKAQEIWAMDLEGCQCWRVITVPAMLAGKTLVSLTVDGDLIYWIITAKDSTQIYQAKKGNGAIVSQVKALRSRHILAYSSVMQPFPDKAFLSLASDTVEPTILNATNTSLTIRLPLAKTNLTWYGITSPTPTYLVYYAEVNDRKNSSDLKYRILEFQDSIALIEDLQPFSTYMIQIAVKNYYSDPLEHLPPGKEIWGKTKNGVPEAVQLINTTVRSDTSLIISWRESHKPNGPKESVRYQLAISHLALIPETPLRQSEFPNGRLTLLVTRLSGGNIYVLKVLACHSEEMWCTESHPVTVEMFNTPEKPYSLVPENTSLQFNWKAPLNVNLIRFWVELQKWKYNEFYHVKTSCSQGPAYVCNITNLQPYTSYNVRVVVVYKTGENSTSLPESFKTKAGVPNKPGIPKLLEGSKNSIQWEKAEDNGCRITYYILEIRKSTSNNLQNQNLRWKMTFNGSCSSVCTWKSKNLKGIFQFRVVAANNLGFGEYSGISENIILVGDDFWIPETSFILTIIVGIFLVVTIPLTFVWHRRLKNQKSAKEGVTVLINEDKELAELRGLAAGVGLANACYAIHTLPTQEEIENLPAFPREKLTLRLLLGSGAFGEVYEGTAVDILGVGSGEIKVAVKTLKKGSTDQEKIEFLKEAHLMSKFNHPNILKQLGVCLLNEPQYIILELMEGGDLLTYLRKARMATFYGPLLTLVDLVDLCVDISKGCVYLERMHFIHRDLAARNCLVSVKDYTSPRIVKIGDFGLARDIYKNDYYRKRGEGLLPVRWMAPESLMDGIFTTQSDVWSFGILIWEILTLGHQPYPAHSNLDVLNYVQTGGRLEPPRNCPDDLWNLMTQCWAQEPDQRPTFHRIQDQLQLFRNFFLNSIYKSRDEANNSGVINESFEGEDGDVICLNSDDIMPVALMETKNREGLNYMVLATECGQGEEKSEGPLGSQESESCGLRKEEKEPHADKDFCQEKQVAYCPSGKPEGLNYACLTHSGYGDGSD

In the case of `COc1cc(C)cc(-c2nn(CC#N)cc2-c2cc(NCC(C)C)nc(-c3cccnc3)n2)c1`, the IC50 in experiment [1] is 920 nM; in experiment [2] it was “Not Active”.
The molecule `Cc1ncc(-c2ccnc(-c3cccnc3)c2)c(-c2ccc(Cl)cc2Cl)n1` registered an IC50 in experiment [1] of 330 nM.
Same read-out and setting: in the case of `COCCCNc1cc(-c2cnc(C)nc2-c2ccc(F)cc2Cl)nc(-c2cccnc2)n1` it was 1330 nM.
In the case of `COCCCNc1cc(-c2cnc(C)nc2-c2ccc(Cl)cc2Cl)nc(-c2cccnc2)n1`, in experiment [1], the IC50 was determined as 357 nM.
With `COc1cc(C)cc(-c2c(-c3ccnc(-c4ccc(NC(C)=O)cc4)c3)cnn2CC#N)c1`, in experiment [3], 6250 nM corresponded to half-maximal inhibition (IC50).
For the molecule `Cc1cc(O)cc(-c2nn(CC#N)cc2-c2cc(NCCCO)nc(-c3cccnc3)n2)c1`, the IC50 in experiment [1] was 108 nM; in experiment [2], “Not Active”.
For `COc1cc(C)cc(-c2nn(CC#N)cc2-c2cc(NCCN3CCOCC3)nc(-c3cccnc3)n2)c1`, in that order: 148 nM and “Not Active”.
In turn, `COc1ccc(-c2cc(-c3c[nH]nc3-c3cc(C)cc(OC)c3)ccn2)cc1` registered an IC50 in experiment [3] of 1250 nM.
Take `COCCCNc1cc(-c2cnc(C)nc2-c2ccc(F)cc2Cl)nc(-c2ccccc2)n1`: the IC50 entry in experiment [4] is recorded as “Not Active”.
As for `COc1cc(C)cc(-c2nn(CC#N)cc2-c2cc(NCCCCO)nc(-c3cccnc3)n2)c1`, the 50% inhibitory concentration (IC50) in experiment [1] was 56 nM; in experiment [2] it was “Not Active”.
In the case of `COCCCNc1cc(-c2cnc(C)nc2-c2ccc(Cl)cc2Cl)nc(-c2ccccc2)n1`, the IC50 entry in experiment [4] is given as “Not Active”.
As to `Cc1cc(O)cc(-c2nn(CC#N)cc2-c2cc(NCCN3CCOCC3)nc(-c3cccnc3)n2)c1`, the figures for the IC50 in experiment [1] and in experiment [2] were 478 nM and “Not Active”, respectively.
For `COc1cc(C)cc(-c2nn(CC#N)cc2-c2cc(NCCCO)nc(-c3cccnc3)n2)c1`, in that order: 119 nM and “Not Active”.
For `Cc1cc(O)cc(-c2nn(CC#N)cc2-c2cc(NCCCCO)nc(-c3cccnc3)n2)c1` the same measures were 24 nM and “Not Active”.
For `COc1cc(C)cc(-c2nn(CC#N)cc2-c2cc(NCCCN3CCOCC3)nc(-c3cccnc3)n2)c1` the same measures were 88 nM and “Not Active”.
As for `Cc1cc(O)cc(-c2nn(CC#N)cc2-c2cc(NCCCN3CCOCC3)nc(-c3cccnc3)n2)c1`, the IC50 in experiment [1] is 183 nM; in experiment [2] it was “Not Active”.
Take `Cc1cc(O)cc(-c2nn(CC#N)cc2-c2cc(NC[C@H](C)O)nc(-c3cccnc3)n2)c1`: the IC50 in experiment [1] was 1.7 nM; in experiment [5], 0.6 nM; in experiment [6] it was 11 nM.
On to `Cc1cc(O)cc(-c2nn(CC#N)cc2-c2cc(NCC(C)C)nc(-c3cccnc3)n2)c1`, for which the IC50 is 780 nM in experiment [1] and “Not Active” in experiment [2].
Regarding `COc1cc(N2CCC(N(C)C)CC2)ccc1Nc1ncc(Cl)c(Nc2ccccc2P(C)(C)=O)n1`, in experiment [7], the IC50 came to 1.9 nM.
`Cc1ncc(-c2ccnc(-c3cccnc3)c2)c(-c2ccc(F)cc2Cl)n1`: the IC50 in experiment [1] was 570 nM.
